Measurements: patent publication US20160058787A1 (priority 2014, published 2016)

Conditions: in vivo

sodium polystyrene sulfonate [NSPS]
reduction of the toxicity and adverse effects of SPS: over 100 folds
